From BindingDB's records for doi:10.1021/ml200223s (2011)

Assay: Antagonist activity at CRTH2 receptor in human whole blood assessed as inhibition of PGD2-induced eosinophil shape change incubated for 20 mins prior to PGD2-challenge measured after 10 mins by flow cytometry

- IC50: 40 nM
Compound: CCCCC(=O)N(Cc1ccc2c(c1)OCCO2)c1cc(F)cc(-c2nnn[nH]2)c1
